Legend:
[1] = molecular target: T1, BACE2 (Homo sapiens, UniProt Q9Y5Z0); assay: BACE2 biochemical FRET based assay; conditions: recombinant BACE2, 450 minutes at room temperature, pH 5.0; for IC50: read-out: Biochemical FRET based assay pIC50 (converted)
T1 construct: recombinant BACE2 protein in a final concentration of 0.4 μg/ml
T1 sequence (Q9Y5Z0 63-518): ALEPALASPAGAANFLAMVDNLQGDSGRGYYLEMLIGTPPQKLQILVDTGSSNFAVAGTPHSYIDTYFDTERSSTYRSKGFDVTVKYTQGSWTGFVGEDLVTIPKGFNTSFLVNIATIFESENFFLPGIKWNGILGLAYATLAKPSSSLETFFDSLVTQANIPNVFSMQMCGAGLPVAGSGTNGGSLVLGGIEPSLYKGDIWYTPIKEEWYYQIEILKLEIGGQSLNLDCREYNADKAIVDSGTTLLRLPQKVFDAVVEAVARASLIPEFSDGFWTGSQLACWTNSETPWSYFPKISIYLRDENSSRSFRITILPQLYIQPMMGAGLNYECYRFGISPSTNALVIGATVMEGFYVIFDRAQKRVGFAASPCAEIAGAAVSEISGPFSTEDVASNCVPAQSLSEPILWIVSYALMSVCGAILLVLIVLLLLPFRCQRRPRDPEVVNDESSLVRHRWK
Excerpt: BACE2 Biochemical FRET Based Assay
(§1) This assay is a Fluorescence Resonance Energy Transfer Assay (FRET) based assay. The substrate for this assay contains the ‘Swedish’ Lys-Met/Asn-Leu mutation of the amyloid precursor protein (APP) beta-site APP-cleaving enzyme cleavage site. This substrate also contains two fluorophores: (7-methoxycoumarin-4-yl) acetic acid (Mca) is a fluorescent donor with excitation wavelength at 320 nm and emission at 405 nm and 2,4-Dinitrophenyl (Dnp) is a proprietary quencher acceptor. […] Upon cleavage by the beta-site APP-cleaving enzyme, the fluorophore Mca is separated from the quenching group Dnp, restoring the full fluorescence yield of the donor. The increase in fluorescence is linearly related to the rate of proteolysis.
Briefly in a 384-well format recombinant BACE2 protein in a final concentration of 0.4 μg/ml is incubated for 450 minutes at room temperature with 10 μM substrate in incubation buffer (50 mM Citrate buffer pH 5.0, 0.05% PEG, no DMSO) in the absence or presence of compound. Next the amount of proteolysis is directly measured by fluorescence measurement at T=0 and T=450 (excitation at 320 nm and emission at 405 nm). Results are expressed in RFU (Relative Fluorescence Units), as difference between T450 and T0.
(§2) A best-fit curve is fitted by a minimum sum of squares method to the plot of % Controlmin versus compound concentration. From this an IC50 value (inhibitory concentration causing 50% inhibition of activity) can be obtained.

[2] = molecular target: T2, BACE1 (Homo sapiens, UniProt P56817); assay: BACE1 biochemical FRET based assay; conditions: Method 1: recombinant BACE1 1 μg/ml, 120 min at room temperature, pH 5.0; for IC50: read-out: Biochemical FRET based assay pIC50 (converted)
T2 construct: recombinant BACE1 protein in a final concentration of 1 μg/ml
T2 sequence (P56817 46-501): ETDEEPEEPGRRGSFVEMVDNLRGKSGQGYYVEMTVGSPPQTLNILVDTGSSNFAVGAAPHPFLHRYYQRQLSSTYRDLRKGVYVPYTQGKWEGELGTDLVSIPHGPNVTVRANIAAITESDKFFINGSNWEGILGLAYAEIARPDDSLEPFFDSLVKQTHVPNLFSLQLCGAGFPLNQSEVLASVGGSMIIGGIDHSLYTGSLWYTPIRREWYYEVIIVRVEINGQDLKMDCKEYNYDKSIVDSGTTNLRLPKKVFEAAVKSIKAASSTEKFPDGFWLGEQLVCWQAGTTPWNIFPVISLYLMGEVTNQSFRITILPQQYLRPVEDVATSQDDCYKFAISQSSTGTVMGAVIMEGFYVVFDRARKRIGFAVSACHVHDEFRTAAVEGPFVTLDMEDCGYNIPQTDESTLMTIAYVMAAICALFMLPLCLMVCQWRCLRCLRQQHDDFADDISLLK
Excerpt: BACE1 Biochemical Fret Based Assay
as §1, with “this assay is an APP derived 13 amino acids peptide that contains the” for “this assay contains the”, “cleavage by BACE1, the fluorophore” for “cleavage by the beta-site APP-cleaving enzyme, the fluorophore”
Briefly in a 384-well format recombinant BACE1 protein in a final concentration of 1 μg/ml is incubated for 120 minutes at room temperature with 10 μm substrate in incubation buffer (40 mM Citrate buffer pH 5.0, 0.04% PEG, 4% DMSO) in the absence or presence of compound. Next the amount of proteolysis is directly measured by fluorescence measurement at T=0 and T=120 (excitation at 320 nm and emission at 405 nm). Results are expressed in RFU (Relative Fluorescence Units), as difference between T120 and T0.
as §2

[3] = system: Abeta 1-42 produced and secreted into the medium of human neuroblastoma SKNBE2 cells; assay: Cellular αLisa assay in SKNBE2 cells; assay type: cell-based; conditions: human neuroblastoma SKNBE2 cells expressing hAPP695, 18 hours incubation; for IC50: Homo sapiens, SKNBE2, 18 h, read-out: Cellular αLisa assay in SKNBE2 cells Abeta 42 pIC50 (converted)
Protocol: Cellular αLisa Assay in SKNBE2 Cells
In two αLisa assays the levels of Abeta 1-42 produced and secreted into the medium of human neuroblastoma SKNBE2 cells are quantified. The assay is based on the human neuroblastoma SKNBE2 expressing the wild type Amyloid Precursor Protein (hAPP695). The compounds are diluted and added to these cells, incubated for 18 hours and then measurements of Abeta 1-42 are taken. Abeta 1-42 are measured by sandwich αLisa. αLisa is a sandwich assay using biotinylated antibody AbN/25 attached to streptavidin coated beads and antibody cAb42/26 conjugated acceptor beads for the detection of Abeta 1-42 respectively. In the presence of Abeta 1-42, the beads come into close proximity. The excitation of the donor beads provokes the release of singlet oxygen molecules that trigger a cascade of energy transfer in the acceptor beads, resulting in light emission. Light emission is measured after 1 hour incubation (excitation at […] and emission at 615 nm).
as §2

SMILES | Biochemical FRET based assay pIC50 [1] | Biochemical FRET based assay pIC50 [2] | Cellular αLisa assay in SKNBE2 cells Abeta 42 pIC50 [3] | IC50 [1] [nM] | IC50 [2] [nM] | IC50 [3] [nM]
C[C@H]1OC[C@]2(c3cc(NC(=O)c4cnc(OCF)cn4)ccc3F)N=C(N)[C@](C)(C#N)C[C@H]12 (single isomer, unassigned) [9b] | 7.19 | 8.28 | 8.74 |  |  | 
C[C@@H]1OC[C@@]2(c3cc(NC(=O)c4cnc(OCF)cn4)ccc3F)N=C(N)[C@@](C)(C#N)C[C@@H]12 (single isomer, unassigned) [9c] | <5 | 5.76 | 5.8 |  |  | 
C[C@H]1OC[C@]2(c3cc(NC(=O)c4ccc(F)cn4)ccc3F)N=C(N)[C@](C)(C#N)C[C@H]12 (single isomer, unassigned) [10b] | 8.28 | 8.25 | 8.23 |  |  | 
C[C@@H]1OC[C@@]2(c3cc(NC(=O)c4ccc(F)cn4)ccc3F)N=C(N)[C@@](C)(C#N)C[C@@H]12 (single isomer, unassigned) [10c] | <5 | 5.01 | 5.29 |  |  | 
COc1cnc(C(=O)Nc2ccc(F)c([C@]34CO[C@H](C)[C@H]3C[C@@](C)(S(C)(=O)=O)C(N)=N4)c2)cn1 (single isomer, unassigned) [13a] | 5.9 | 7 | 7.19 |  |  | 
COc1cnc(C(=O)Nc2ccc(F)c([C@@]34CO[C@@H](C)[C@@H]3C[C@@](C)(S(C)(=O)=O)C(N)=N4)c2)cn1 (single isomer, unassigned) [13b] | <5 | 5.48 | 5.75 |  |  | 
COc1cnc(C(=O)Nc2ccc(F)c([C@@]34CO[C@@H](C)[C@@H]3C[C@](C)(S(C)(=O)=O)C(N)=N4)c2)cn1 (single isomer, unassigned) [13c] | 5.41 | 6.05 | 6.21 |  |  | 
COc1cnc(C(=O)Nc2ccc(F)c([C@]34CO[C@H](C)[C@H]3C[C@](C)(S(C)(=O)=O)C(N)=N4)c2)cn1 (single isomer, unassigned) [13d] | <5 | <5 | <5.05 |  |  | 
CC1OCC2(c3cc(NC(=O)c4cnc(-n5cncn5)cn4)ccc3F)N=C(N)C(C)(C#N)CC12 (single isomer, unassigned) [15a] |  |  | 8.19 | 158 | 7.41 | 
CC1OCC2(c3cc(NC(=O)c4cnc(-n5cncn5)cn4)ccc3F)N=C(N)C(C)(C#N)CC12 (single isomer, unassigned) [15b] |  |  | 5.62 | > 10000 | 1550 | 
N#Cc1ccc(C(=O)Nc2ccc(F)c([C@@]34CO[C@@H](C(F)(F)F)[C@@H]3CCC(N)=N4)c2)nc1 [11b] |  |  | 5.9 |  |  | 
Cl.NC1=N[C@]2(c3cc(NC(=O)c4ccc(F)cn4)ccc3F)CO[C@@H](C(F)(F)F)[C@@H]2CC1 [12b] |  | 5.27 | 5.45 |  |  | 
CC(C)(F)[C@H]1OC[C@]2(c3cc(NC(=O)c4ccc(C#N)cn4)ccc3F)N=C(N)[C@](C)(C#N)C[C@H]12 [21a] |  |  | 8.62 |  |  | 
CC1(C#N)CC2C(CF)OCC2(c2cc(NC(=O)c3ccc(C#N)cn3)ccc2F)N=C1N (stereo not shown) [24a] |  |  |  |  | 2.14 | 2.88
Cc1cc(C#N)cnc1C(=O)Nc1ccc(F)c(C23COC(C(C)(F)F)C2CC(C)(C#N)C(N)=N3)c1 (stereo not shown) [compound 37] |  |  |  |  | 1.91 | 1.78
CC1(C#N)CC2C(C(C)(F)F)OCC2(c2cc(NC(=O)c3cnc(OC(F)F)cn3)ccc2F)N=C1N (stereo not shown) [compound 38] |  |  |  |  | 0.955 | 3.8

Further lines, results first:

Biochemical FRET based assay pIC50 [1] | Biochemical FRET based assay pIC50 [2] | Cellular αLisa assay in SKNBE2 cells Abeta 42 pIC50 [3] | IC50 [1] [nM] | IC50 [2] [nM] | IC50 [3] [nM] | SMILES
 |  | 7.74 | 141 | 8.91 |  | CC1(C#N)CC2C(C(F)F)OCC2(c2cc(NC(=O)c3cnc(OCF)cn3)ccc2F)N=C1N (single isomer, unassigned) [25a]
 |  | 7.13 | 891 | 52.5 |  | CC1(C#N)CC2C(C(F)F)OCC2(c2cc(NC(=O)c3cnc(OCF)cn3)ccc2F)N=C1N (single isomer, unassigned) [25b]
 |  | 7.15 | 2400 | 66.1 |  | CC1OCC2(c3cc(NC(=O)c4cnc(OCF)cn4)cc(F)c3F)N=C(N)C(C)(C#N)CC12 (single isomer, unassigned) [31a]
 |  | <5.05 | > 10000 | 8710 |  | CC1OCC2(c3cc(NC(=O)c4cnc(OCF)cn4)cc(F)c3F)N=C(N)C(C)(C#N)CC12 (single isomer, unassigned) [31b]
 |  | 7.57 | 158 | 15.5 |  | CC1OCC2(c3cc(NC(=O)c4cnc(OCF)cn4)cc(F)c3F)N=C(N)C(C)(C#N)CC12 (single isomer, unassigned) [31c]
 |  | <5.05 | > 10000 | > 10000 |  | CC1OCC2(c3cc(NC(=O)c4cnc(OCF)cn4)cc(F)c3F)N=C(N)C(C)(C#N)CC12 (single isomer, unassigned) [31d]
 |  | 7.51 | 347 | 19.1 |  | CC1OCC2(c3cc(NC(=O)c4cnc(-n5cncn5)cn4)cc(F)c3F)N=C(N)C(C)(C#N)CC12 (single isomer, unassigned) [32a]
 |  | 5.97 | 9550 | 309 |  | CC1OCC2(c3cc(NC(=O)c4cnc(-n5cncn5)cn4)cc(F)c3F)N=C(N)C(C)(C#N)CC12 (single isomer, unassigned) [32b]
 |  | 5.14 | > 10000 | 7590 |  | CC1OCC2(c3cc(NC(=O)c4ccc(C#N)cn4)cc(F)c3F)N=C(N)C(C)(C#N)CC12 (single isomer, unassigned) [33a]
 |  | 7.81 | 44.7 | 5.5 |  | CC1OCC2(c3cc(NC(=O)c4ccc(C#N)cn4)cc(F)c3F)N=C(N)C(C)(C#N)CC12 (single isomer, unassigned) [33b]

Reference: US20200062773A1, “4,4a,5,7-TETRAHYDRO-3H-FURO[3,4-b]PYRIDINYL COMPOUNDS” (Janssen Pharmaceutlca NV, priority 2016, published 2020)
